Results published in patent US8192962B2, “Processes for detecting toxic substances” (Daikin Industries, Ltd., priority 2001, dated 2012).

Tested on: Metabolism protein genes
Test: DNA chip mRNA expression in yeast, metabolism protein genes (Table 7)
Format: cell-based, Saccharomyces cerevisiae S288C
How it was run: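 Value is the scanned fluorescence intensity ratio of exposed versus chemical-free cells. Log-phase S288C yeast in YPD at 25° C. received one toxic substance for two hours, dosed to slow growth without killing; Cy3/Cy5-labeled cDNA from oligo-dT-purified mRNA was hybridized to a whole-genome chip at 65° C.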

C[S+](C)[O-] [(15), dimethylsulfoxide]
The level of expressed mRNA in the presence of chemical substance/The level of expressed mRNA in the absence of chemical substance (yeast gene YAL012W): 3.1
The level of expressed mRNA in the presence of chemical substance/The level of expressed mRNA in the absence of chemical substance (yeast gene YAL038W): 3.1
The level of expressed mRNA in the presence of chemical substance/The level of expressed mRNA in the absence of chemical substance (yeast gene YAL044C): 0.7
The level of expressed mRNA in the presence of chemical substance/The level of expressed mRNA in the absence of chemical substance (yeast gene YAL054C): 0.9
The level of expressed mRNA in the presence of chemical substance/The level of expressed mRNA in the absence of chemical substance (yeast gene YAR071W): 1.1
The level of expressed mRNA in the presence of chemical substance/The level of expressed mRNA in the absence of chemical substance (yeast gene YBL001C): 1.0
level of expressed mRNA in the presence/in the absence of chemical substance (yeast gene YBR003W): 0.7
level of expressed mRNA in the presence/in the absence of chemical substance (yeast gene YBR011C): 2.1
The level of expressed mRNA in the presence of chemical substance/The level of expressed mRNA in the absence of chemical substance (yeast gene YBR014C): 1.2
level of expressed mRNA in the presence/in the absence of chemical substance (yeast gene YBR020W): 1.3
The level of expressed mRNA in the presence of chemical substance/The level of expressed mRNA in the absence of chemical substance (yeast gene YBR023C): 2.8
The level of expressed mRNA in the presence of chemical substance/The level of expressed mRNA in the absence of chemical substance (yeast gene YBR029C): 3.5
The level of expressed mRNA in the presence of chemical substance/The level of expressed mRNA in the absence of chemical substance (yeast gene YBR035C): 0.7
The level of expressed mRNA in the presence of chemical substance/The level of expressed mRNA in the absence of chemical substance (yeast gene YBR068C): 1.6
The level of expressed mRNA in the presence of chemical substance/The level of expressed mRNA in the absence of chemical substance (yeast gene YBR111C): 0.7
The level of expressed mRNA in the presence of chemical substance/The level of expressed mRNA in the absence of chemical substance (yeast gene YBR183W): 1.1
The level of expressed mRNA in the presence of chemical substance/The level of expressed mRNA in the absence of chemical substance (yeast gene YBR256C): 1.6
The level of expressed mRNA in the presence of chemical substance/The level of expressed mRNA in the absence of chemical substance (yeast gene YCL009C): 6.5
level of expressed mRNA in the presence/in the absence of chemical substance (yeast gene YCR010C): 1.2
level of expressed mRNA in the presence/in the absence of chemical substance (yeast gene YCR034W): 0.9
The level of expressed mRNA in the presence of chemical substance/The level of expressed mRNA in the absence of chemical substance (yeast gene YCR037C): 1.0
The level of expressed mRNA in the presence of chemical substance/The level of expressed mRNA in the absence of chemical substance (yeast gene YCR048W): 3.1
The level of expressed mRNA in the presence of chemical substance/The level of expressed mRNA in the absence of chemical substance (yeast gene YCR098C): 11.0
The level of expressed mRNA in the presence of chemical substance/The level of expressed mRNA in the absence of chemical substance (yeast gene YDL021W): 0.7
The level of expressed mRNA in the presence of chemical substance/The level of expressed mRNA in the absence of chemical substance (yeast gene YDL022W): 0.9
level of expressed mRNA in the presence/in the absence of chemical substance (yeast gene YDR050C): 1.9
level of expressed mRNA in the presence/in the absence of chemical substance (yeast gene YDR073W): 0.8
level of expressed mRNA in the presence/in the absence of chemical substance (yeast gene YDR123C): 1.2
level of expressed mRNA in the presence/in the absence of chemical substance (yeast gene YDR178W): 0.7
level of expressed mRNA in the presence/in the absence of chemical substance (yeast gene YDR277C): 0.4
level of expressed mRNA in the presence/in the absence of chemical substance (yeast gene YDR284C): 0.9
level of expressed mRNA in the presence/in the absence of chemical substance (yeast gene YDR345C): 0.8
The level of expressed mRNA in the presence of chemical substance/The level of expressed mRNA in the absence of chemical substance (yeast gene YDR380W): 2.4
level of expressed mRNA in the presence/in the absence of chemical substance (yeast gene YDR400W): 0.8
level of expressed mRNA in the presence/in the absence of chemical substance (yeast gene YDR408C): 1.0
The level of expressed mRNA in the presence of chemical substance/The level of expressed mRNA in the absence of chemical substance (yeast gene YDR410C): 1.2
level of expressed mRNA in the presence/in the absence of chemical substance (yeast gene YDR483W): 1.5
The level of expressed mRNA in the presence of chemical substance/The level of expressed mRNA in the absence of chemical substance (yeast gene YDR487C): 1.0
The level of expressed mRNA in the presence of chemical substance/The level of expressed mRNA in the absence of chemical substance (yeast gene YDR502C): 8.2
The level of expressed mRNA in the presence of chemical substance/The level of expressed mRNA in the absence of chemical substance (yeast gene YDR516C): 0.4
The level of expressed mRNA in the presence of chemical substance/The level of expressed mRNA in the absence of chemical substance (yeast gene YEL011W): 0.4
level of expressed mRNA in the presence/in the absence of chemical substance (yeast gene YEL063C): 1.3
level of expressed mRNA in the presence/in the absence of chemical substance (yeast gene YER015W): 0.8
The level of expressed mRNA in the presence of chemical substance/The level of expressed mRNA in the absence of chemical substance (yeast gene YER026C): 4.0
The level of expressed mRNA in the presence of chemical substance/The level of expressed mRNA in the absence of chemical substance (yeast gene YER053C): 1.1
level of expressed mRNA in the presence/in the absence of chemical substance (yeast gene YER081W): 0.5
The level of expressed mRNA in the presence of chemical substance/The level of expressed mRNA in the absence of chemical substance (yeast gene YER096W): 1.4
level of expressed mRNA in the presence/in the absence of chemical substance (yeast gene YER120W): 1.5
The level of expressed mRNA in the presence of chemical substance/The level of expressed mRNA in the absence of chemical substance (yeast gene YER178W): 1.8
level of expressed mRNA in the presence/in the absence of chemical substance (yeast gene YFL011W): 1.7
The level of expressed mRNA in the presence of chemical substance/The level of expressed mRNA in the absence of chemical substance (yeast gene YFL014W): 6.3
The level of expressed mRNA in the presence of chemical substance/The level of expressed mRNA in the absence of chemical substance (yeast gene YFL030W): 1.1
The level of expressed mRNA in the presence of chemical substance/The level of expressed mRNA in the absence of chemical substance (yeast gene YFL056C): 5.0
The level of expressed mRNA in the presence of chemical substance/The level of expressed mRNA in the absence of chemical substance (yeast gene YFR015C): 0.4
The level of expressed mRNA in the presence of chemical substance/The level of expressed mRNA in the absence of chemical substance (yeast gene YFR047C): 0.6
The level of expressed mRNA in the presence of chemical substance/The level of expressed mRNA in the absence of chemical substance (yeast gene YGL001C): 0.9
level of expressed mRNA in the presence/in the absence of chemical substance (yeast gene YGL012W): 0.6
The level of expressed mRNA in the presence of chemical substance/The level of expressed mRNA in the absence of chemical substance (yeast gene YGL022W): 4.0
The level of expressed mRNA in the presence of chemical substance/The level of expressed mRNA in the absence of chemical substance (yeast gene YGL104C): 0.9
level of expressed mRNA in the presence/in the absence of chemical substance (yeast gene YGL115W): 0.7
The level of expressed mRNA in the presence of chemical substance/The level of expressed mRNA in the absence of chemical substance (yeast gene YGL126W): 2.8
The level of expressed mRNA in the presence of chemical substance/The level of expressed mRNA in the absence of chemical substance (yeast gene YGL154C): 0.8
level of expressed mRNA in the presence/in the absence of chemical substance (yeast gene YGL205W): 2.0
The level of expressed mRNA in the presence of chemical substance/The level of expressed mRNA in the absence of chemical substance (yeast gene YGL248W): 1.8
The level of expressed mRNA in the presence of chemical substance/The level of expressed mRNA in the absence of chemical substance (yeast gene YGL253W): 0.8
The level of expressed mRNA in the presence of chemical substance/The level of expressed mRNA in the absence of chemical substance (yeast gene YGR037C): 1.5
The level of expressed mRNA in the presence of chemical substance/The level of expressed mRNA in the absence of chemical substance (yeast gene YGR060W): 1.4
level of expressed mRNA in the presence/in the absence of chemical substance (yeast gene YGR096W): 0.9
level of expressed mRNA in the presence/in the absence of chemical substance (yeast gene YGR191W): 1.5
The level of expressed mRNA in the presence of chemical substance/The level of expressed mRNA in the absence of chemical substance (yeast gene YGR194C): 0.6
level of expressed mRNA in the presence/in the absence of chemical substance (yeast gene YGR204W): 1.6
level of expressed mRNA in the presence/in the absence of chemical substance (yeast gene YGR288W): 0.8
level of expressed mRNA in the presence/in the absence of chemical substance (yeast gene YHR025W): 2.1
The level of expressed mRNA in the presence of chemical substance/The level of expressed mRNA in the absence of chemical substance (yeast gene YHR037W): 1.1
The level of expressed mRNA in the presence of chemical substance/The level of expressed mRNA in the absence of chemical substance (yeast gene YHR092C): 0.2
The level of expressed mRNA in the presence of chemical substance/The level of expressed mRNA in the absence of chemical substance (yeast gene YHR111W): 1.1
level of expressed mRNA in the presence/in the absence of chemical substance (yeast gene YHR123W): 2.3
The level of expressed mRNA in the presence of chemical substance/The level of expressed mRNA in the absence of chemical substance (yeast gene YHR137W): 2.8
The level of expressed mRNA in the presence of chemical substance/The level of expressed mRNA in the absence of chemical substance (yeast gene YHR174W): 2.0
The level of expressed mRNA in the presence of chemical substance/The level of expressed mRNA in the absence of chemical substance (yeast gene YHR176W): 1.5
The level of expressed mRNA in the presence of chemical substance/The level of expressed mRNA in the absence of chemical substance (yeast gene YHR190W): 1.3
level of expressed mRNA in the presence/in the absence of chemical substance (yeast gene YHR210C): 0.5
level of expressed mRNA in the presence/in the absence of chemical substance (yeast gene YIL006W): 1.5
The level of expressed mRNA in the presence of chemical substance/The level of expressed mRNA in the absence of chemical substance (yeast gene YIL033C): 1.0
The level of expressed mRNA in the presence of chemical substance/The level of expressed mRNA in the absence of chemical substance (yeast gene YIL045W): 0.6
The level of expressed mRNA in the presence of chemical substance/The level of expressed mRNA in the absence of chemical substance (yeast gene YIL107C): 1.0
The level of expressed mRNA in the presence of chemical substance/The level of expressed mRNA in the absence of chemical substance (yeast gene YIL154C): 4.3
The level of expressed mRNA in the presence of chemical substance/The level of expressed mRNA in the absence of chemical substance (yeast gene YIL155C): 1.4
The level of expressed mRNA in the presence of chemical substance/The level of expressed mRNA in the absence of chemical substance (yeast gene YIL167W): 0.6
The level of expressed mRNA in the presence of chemical substance/The level of expressed mRNA in the absence of chemical substance (yeast gene YIR036C): 1.1
